Laboratory results reported in ChEMBL document CHEMBL4507287, “Data for DCP probe MRL-650” (2021).

Columns and labels:
[1] = target: Mitogen-activated protein kinase 14 (Homo sapiens) (UniProt Q16539); settings: Compound concentration 1000.0 nM
[2] = test system: Hepatocyte growth factor receptor (Homo sapiens), P08581 [M1250T]; settings: Compound concentration 1000.0 nM
[3] = target: STE20/SPS1-related proline-alanine-rich protein kinase (Homo sapiens) (UniProt Q9UEW8); settings: Compound concentration 1000.0 nM
[4] = target: Testis-specific serine/threonine-protein kinase 3 (Homo sapiens) (UniProt Q96PN8); settings: Compound concentration 1000.0 nM
[5] = target: Cyclin-dependent kinase 3 (Homo sapiens) (UniProt Q00526); settings: Compound concentration 1000.0 nM
[6] = target: Serine/threonine-protein kinase RIO1 (Homo sapiens) (UniProt Q9BRS2); settings: Compound concentration 1000.0 nM
[7] = target: Myosin-IIIb (Homo sapiens) (UniProt Q8WXR4); settings: Compound concentration 1000.0 nM
[8] = target: Myosin light chain kinase (Homo sapiens) (UniProt Q32MK0); settings: Compound concentration 1000.0 nM
[9] = test system: Mast/stem cell growth factor receptor Kit (Homo sapiens), P10721 [L576P]; settings: Compound concentration 1000.0 nM
[10] = target: Tyrosine-protein kinase Fgr (Homo sapiens) (UniProt P09769); settings: Compound concentration 1000.0 nM
[11] = target: Inhibitor of nuclear factor kappa-B kinase subunit beta (Homo sapiens) (UniProt O14920); settings: Compound concentration 1000.0 nM
[12] = test system: Proto-oncogene tyrosine-protein kinase receptor Ret (Homo sapiens), P07949 [M918T]; settings: Compound concentration 1000.0 nM
[13] = target: Serine/threonine-protein kinase N1 (Homo sapiens) (UniProt Q16512); settings: Compound concentration 1000.0 nM
[14] = target: D(4) dopamine receptor (Homo sapiens) (UniProt P21917); settings: Compound concentration 10.0 uM
[15] = target: Protein kinase C theta type (Homo sapiens) (UniProt Q04759); settings: Compound concentration 1000.0 nM
[16] = target: High affinity nerve growth factor receptor (Homo sapiens) (UniProt P04629); settings: Compound concentration 1000.0 nM
[17] = target: Histamine H2 receptor (Homo sapiens) (UniProt P25021); settings: Compound concentration 10.0 uM
[18] = target: Fibroblast growth factor receptor 4 (Homo sapiens) (UniProt P22455); settings: Compound concentration 1000.0 nM
Chain of Fibroblast growth factor receptor 4 (Homo sapiens) (P22455 22-802 limits assumed): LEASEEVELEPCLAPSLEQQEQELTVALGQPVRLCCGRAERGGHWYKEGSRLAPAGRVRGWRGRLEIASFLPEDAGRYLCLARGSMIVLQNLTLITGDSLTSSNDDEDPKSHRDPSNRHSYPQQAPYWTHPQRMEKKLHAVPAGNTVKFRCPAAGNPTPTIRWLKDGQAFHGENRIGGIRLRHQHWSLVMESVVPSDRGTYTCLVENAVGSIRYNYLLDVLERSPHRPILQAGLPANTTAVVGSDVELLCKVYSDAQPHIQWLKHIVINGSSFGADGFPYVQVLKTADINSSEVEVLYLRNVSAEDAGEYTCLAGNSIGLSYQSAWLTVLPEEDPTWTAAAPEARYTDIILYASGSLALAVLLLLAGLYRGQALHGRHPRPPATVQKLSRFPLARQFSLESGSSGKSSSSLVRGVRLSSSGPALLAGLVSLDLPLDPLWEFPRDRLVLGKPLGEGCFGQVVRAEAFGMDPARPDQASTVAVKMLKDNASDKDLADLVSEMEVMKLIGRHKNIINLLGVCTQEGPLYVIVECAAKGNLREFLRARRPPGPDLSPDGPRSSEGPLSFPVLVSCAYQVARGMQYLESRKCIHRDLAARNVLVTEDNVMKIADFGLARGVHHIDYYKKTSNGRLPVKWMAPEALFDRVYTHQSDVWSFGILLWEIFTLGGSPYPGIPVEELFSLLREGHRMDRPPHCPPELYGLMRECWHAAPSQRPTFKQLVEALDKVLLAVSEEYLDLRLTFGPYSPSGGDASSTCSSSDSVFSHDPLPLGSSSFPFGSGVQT

[19] = target: Serine/threonine-protein kinase pim-2 (Homo sapiens) (UniProt Q9P1W9); settings: Compound concentration 1000.0 nM
[20] = target: Serine/threonine-protein kinase RIO2 (Homo sapiens) (UniProt Q9BVS4); settings: Compound concentration 1000.0 nM
Chain of Serine/threonine-protein kinase RIO2 (Homo sapiens) (Q9BVS4 whole entry, looked up): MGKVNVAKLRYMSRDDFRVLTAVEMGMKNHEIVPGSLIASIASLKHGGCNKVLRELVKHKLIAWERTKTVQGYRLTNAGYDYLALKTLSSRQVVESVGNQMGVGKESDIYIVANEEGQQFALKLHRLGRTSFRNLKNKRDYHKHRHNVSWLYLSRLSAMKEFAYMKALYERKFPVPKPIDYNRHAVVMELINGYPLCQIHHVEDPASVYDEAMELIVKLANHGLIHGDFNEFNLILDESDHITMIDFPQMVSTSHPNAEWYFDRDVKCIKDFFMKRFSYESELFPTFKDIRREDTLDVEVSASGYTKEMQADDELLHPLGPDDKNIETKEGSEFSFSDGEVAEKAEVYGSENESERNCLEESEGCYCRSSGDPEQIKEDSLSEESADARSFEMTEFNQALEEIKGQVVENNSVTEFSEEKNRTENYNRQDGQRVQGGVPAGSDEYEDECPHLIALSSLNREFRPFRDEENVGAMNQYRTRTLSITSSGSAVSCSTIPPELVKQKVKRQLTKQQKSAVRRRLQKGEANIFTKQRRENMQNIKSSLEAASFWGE

[21] = target: Serine/threonine-protein kinase WNK2 (Homo sapiens) (UniProt Q9Y3S1); settings: Compound concentration 1000.0 nM
Chain of Serine/threonine-protein kinase WNK2 (Homo sapiens) (Q9Y3S1 whole entry): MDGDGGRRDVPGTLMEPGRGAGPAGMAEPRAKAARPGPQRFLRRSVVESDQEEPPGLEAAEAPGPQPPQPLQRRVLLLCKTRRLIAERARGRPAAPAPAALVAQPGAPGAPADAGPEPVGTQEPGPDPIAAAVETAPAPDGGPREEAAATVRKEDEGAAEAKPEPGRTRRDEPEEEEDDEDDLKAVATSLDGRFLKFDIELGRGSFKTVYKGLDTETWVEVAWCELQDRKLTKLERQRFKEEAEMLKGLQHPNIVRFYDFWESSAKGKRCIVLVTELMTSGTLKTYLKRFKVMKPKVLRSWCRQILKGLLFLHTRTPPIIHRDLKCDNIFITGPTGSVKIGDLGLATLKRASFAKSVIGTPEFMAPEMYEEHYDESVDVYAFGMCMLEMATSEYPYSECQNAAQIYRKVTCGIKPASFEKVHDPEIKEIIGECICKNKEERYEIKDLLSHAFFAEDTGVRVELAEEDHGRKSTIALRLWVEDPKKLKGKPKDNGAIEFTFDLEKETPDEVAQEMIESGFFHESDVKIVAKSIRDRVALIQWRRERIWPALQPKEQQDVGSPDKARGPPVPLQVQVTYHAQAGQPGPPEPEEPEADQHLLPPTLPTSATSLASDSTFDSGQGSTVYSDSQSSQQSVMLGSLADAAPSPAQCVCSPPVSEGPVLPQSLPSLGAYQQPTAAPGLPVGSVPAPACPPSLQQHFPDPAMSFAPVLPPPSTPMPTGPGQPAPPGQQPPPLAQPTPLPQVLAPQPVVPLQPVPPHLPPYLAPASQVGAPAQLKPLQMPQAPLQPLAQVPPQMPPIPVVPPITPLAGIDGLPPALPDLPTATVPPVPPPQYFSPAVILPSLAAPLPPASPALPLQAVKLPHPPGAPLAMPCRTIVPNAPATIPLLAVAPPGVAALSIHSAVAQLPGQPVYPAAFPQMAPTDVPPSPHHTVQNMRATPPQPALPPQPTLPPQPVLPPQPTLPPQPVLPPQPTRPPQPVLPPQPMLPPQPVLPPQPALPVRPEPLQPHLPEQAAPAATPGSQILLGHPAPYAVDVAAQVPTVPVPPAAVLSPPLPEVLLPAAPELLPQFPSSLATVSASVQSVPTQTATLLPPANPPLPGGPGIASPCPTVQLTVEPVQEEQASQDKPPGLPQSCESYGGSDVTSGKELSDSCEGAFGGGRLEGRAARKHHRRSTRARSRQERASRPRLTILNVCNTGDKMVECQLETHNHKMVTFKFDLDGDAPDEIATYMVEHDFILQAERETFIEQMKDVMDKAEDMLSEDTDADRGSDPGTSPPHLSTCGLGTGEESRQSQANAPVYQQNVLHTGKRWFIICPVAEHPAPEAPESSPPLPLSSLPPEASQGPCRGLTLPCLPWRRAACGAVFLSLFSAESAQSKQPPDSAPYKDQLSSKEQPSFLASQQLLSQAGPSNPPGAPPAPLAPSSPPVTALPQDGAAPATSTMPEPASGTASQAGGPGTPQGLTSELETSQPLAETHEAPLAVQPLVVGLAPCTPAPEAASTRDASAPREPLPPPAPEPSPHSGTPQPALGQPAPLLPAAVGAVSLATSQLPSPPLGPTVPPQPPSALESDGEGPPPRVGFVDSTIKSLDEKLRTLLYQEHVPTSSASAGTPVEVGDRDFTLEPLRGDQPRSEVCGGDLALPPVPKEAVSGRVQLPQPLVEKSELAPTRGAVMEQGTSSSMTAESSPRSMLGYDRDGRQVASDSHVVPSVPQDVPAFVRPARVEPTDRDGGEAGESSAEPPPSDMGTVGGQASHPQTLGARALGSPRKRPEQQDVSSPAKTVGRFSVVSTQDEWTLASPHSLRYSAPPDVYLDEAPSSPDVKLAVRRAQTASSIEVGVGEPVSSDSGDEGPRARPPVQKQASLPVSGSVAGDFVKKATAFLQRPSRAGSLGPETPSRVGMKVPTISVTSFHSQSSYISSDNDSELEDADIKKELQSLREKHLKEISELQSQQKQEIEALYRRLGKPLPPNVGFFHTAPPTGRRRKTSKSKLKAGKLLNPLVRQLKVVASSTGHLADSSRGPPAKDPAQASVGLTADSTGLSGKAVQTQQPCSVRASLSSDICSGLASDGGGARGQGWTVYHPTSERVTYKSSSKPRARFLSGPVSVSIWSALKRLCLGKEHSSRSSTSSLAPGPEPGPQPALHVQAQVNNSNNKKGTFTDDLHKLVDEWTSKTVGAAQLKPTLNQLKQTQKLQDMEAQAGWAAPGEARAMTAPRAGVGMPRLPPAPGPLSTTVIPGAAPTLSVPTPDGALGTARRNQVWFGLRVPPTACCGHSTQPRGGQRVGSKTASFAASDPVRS

[22] = target: Myosin light chain kinase family member 4 (Homo sapiens) (UniProt Q86YV6); settings: Compound concentration 1000.0 nM
[23] = target: Calcium-dependent protein kinase 1 (Plasmodium falciparum) (UniProt P62344); settings: Compound concentration 1000.0 nM
[24] = target: Alpha-1B adrenergic receptor (Homo sapiens) (UniProt P35368); settings: Compound concentration 10.0 uM
Chain of Alpha-1B adrenergic receptor (Homo sapiens) (P35368 whole entry): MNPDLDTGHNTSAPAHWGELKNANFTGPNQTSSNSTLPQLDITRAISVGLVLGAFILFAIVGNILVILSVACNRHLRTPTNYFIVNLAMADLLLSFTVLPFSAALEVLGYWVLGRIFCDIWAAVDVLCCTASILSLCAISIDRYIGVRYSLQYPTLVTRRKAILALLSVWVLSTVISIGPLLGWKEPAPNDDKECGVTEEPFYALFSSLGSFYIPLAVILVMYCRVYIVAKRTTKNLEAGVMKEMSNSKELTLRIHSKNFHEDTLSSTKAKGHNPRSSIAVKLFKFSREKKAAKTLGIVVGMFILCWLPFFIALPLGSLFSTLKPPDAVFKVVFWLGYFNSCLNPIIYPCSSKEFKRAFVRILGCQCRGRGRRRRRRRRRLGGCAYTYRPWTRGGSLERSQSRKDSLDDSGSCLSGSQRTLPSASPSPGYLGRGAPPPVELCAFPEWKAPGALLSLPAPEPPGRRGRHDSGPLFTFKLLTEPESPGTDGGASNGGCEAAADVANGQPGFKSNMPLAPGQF

[25] = target: D(1B) dopamine receptor (Homo sapiens) (UniProt P21918); settings: Compound concentration 10.0 uM
[26] = target: Cyclin-dependent kinase 18 (Homo sapiens) (UniProt Q07002); settings: Compound concentration 1000.0 nM
[27] = target: RAC-alpha serine/threonine-protein kinase (Homo sapiens) (UniProt P31749); settings: Compound concentration 1000.0 nM
[28] = target: Dual specificity mitogen-activated protein kinase kinase 5 (Homo sapiens) (UniProt Q13163); settings: Compound concentration 1000.0 nM
Chain of Dual specificity mitogen-activated protein kinase kinase 5 (Homo sapiens) (Q13163 whole entry): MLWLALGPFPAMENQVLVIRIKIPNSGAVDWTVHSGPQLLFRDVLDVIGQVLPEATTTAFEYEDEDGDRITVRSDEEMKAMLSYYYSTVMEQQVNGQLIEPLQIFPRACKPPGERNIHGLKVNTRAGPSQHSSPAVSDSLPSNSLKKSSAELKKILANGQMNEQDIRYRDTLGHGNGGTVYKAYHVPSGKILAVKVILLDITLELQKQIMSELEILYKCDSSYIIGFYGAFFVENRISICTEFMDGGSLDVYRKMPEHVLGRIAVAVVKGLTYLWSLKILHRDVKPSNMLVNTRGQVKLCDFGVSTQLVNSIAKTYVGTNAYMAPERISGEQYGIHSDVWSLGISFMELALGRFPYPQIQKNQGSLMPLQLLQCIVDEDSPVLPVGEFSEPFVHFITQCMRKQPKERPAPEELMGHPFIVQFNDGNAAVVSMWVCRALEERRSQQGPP

[29] = target: Mu-type opioid receptor (Homo sapiens) (UniProt P35372); settings: Compound concentration 10.0 uM
[30] = target: Muscarinic acetylcholine receptor M5 (Homo sapiens) (UniProt P08912); settings: Compound concentration 10.0 uM
[31] = target: Alpha-1A adrenergic receptor (Homo sapiens) (UniProt P35348); settings: Compound concentration 10.0 uM
[32] = target: Tyrosine-protein kinase Yes (Homo sapiens) (UniProt P07947); settings: Compound concentration 1000.0 nM
[33] = target: Serine/threonine-protein kinase LATS2 (Homo sapiens) (UniProt Q9NRM7); settings: Compound concentration 1000.0 nM
[34] = target: cAMP-dependent protein kinase catalytic subunit alpha (Homo sapiens) (UniProt P17612); settings: Compound concentration 1000.0 nM
[35] = target: Serine/threonine-protein kinase TAO1 (Homo sapiens) (UniProt Q7L7X3); settings: Compound concentration 1000.0 nM
[36] = target: Casein kinase I isoform alpha-like (Homo sapiens) (UniProt Q8N752); settings: Compound concentration 1000.0 nM
[37] = target: Protein-tyrosine kinase 6 (Homo sapiens) (UniProt Q13882); settings: Compound concentration 1000.0 nM
[38] = target: Dual specificity mitogen-activated protein kinase kinase 2 (Homo sapiens) (UniProt P36507); settings: Compound concentration 1000.0 nM
[39] = target: Death-associated protein kinase 2 (Homo sapiens) (UniProt Q9UIK4); settings: Compound concentration 1000.0 nM
[40] = target: Mitogen-activated protein kinase 4 (Homo sapiens) (UniProt P31152); settings: Compound concentration 1000.0 nM
[41] = target: Ribosomal protein S6 kinase alpha-4 (Homo sapiens) (UniProt O75676); settings: Compound concentration 1000.0 nM
[42] = target: Insulin receptor-related protein (Homo sapiens) (UniProt P14616); settings: Compound concentration 1000.0 nM
[43] = target: Serine/threonine-protein kinase ULK3 (Homo sapiens) (UniProt Q6PHR2); settings: Compound concentration 1000.0 nM
Chain of Serine/threonine-protein kinase ULK3 (Homo sapiens) (Q6PHR2 whole entry): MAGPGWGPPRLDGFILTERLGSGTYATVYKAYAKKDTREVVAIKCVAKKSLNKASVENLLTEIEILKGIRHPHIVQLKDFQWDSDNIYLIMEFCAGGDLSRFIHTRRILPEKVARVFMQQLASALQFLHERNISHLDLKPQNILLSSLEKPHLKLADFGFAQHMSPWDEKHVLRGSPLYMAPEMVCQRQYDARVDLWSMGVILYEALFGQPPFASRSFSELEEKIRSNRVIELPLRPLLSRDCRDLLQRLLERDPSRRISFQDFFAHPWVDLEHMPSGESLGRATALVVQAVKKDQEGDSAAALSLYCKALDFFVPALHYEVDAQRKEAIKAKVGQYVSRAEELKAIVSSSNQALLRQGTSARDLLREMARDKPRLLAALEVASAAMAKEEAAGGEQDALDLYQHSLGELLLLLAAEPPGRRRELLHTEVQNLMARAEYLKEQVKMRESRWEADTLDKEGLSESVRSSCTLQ

[44] = target: NT-3 growth factor receptor (Homo sapiens) (UniProt Q16288); settings: Compound concentration 1000.0 nM
[45] = target: Tyrosine-protein kinase Lyn (Homo sapiens) (UniProt P07948); settings: Compound concentration 1000.0 nM
[46] = target: Macrophage colony-stimulating factor 1 receptor (Homo sapiens) (UniProt P07333); settings: Compound concentration 1000.0 nM

CC(=O)c1c(NS(C)(=O)=O)c2cc(-c3ccc(Cl)cc3)c(-c3ccc(Cl)cc3Cl)nc2n(C)c1=O [MRL-CB1-NC]
inactive: residual activity [1] 100% | residual activity [2] 90% | residual activity [3] 92% | residual activity [4] 100% | residual activity [5] 100% | residual activity [6] 100% | residual activity [7] 99% | residual activity [8] 91% | residual activity [9] 99% | residual activity [10] 100% | residual activity [11] 98% | residual activity [12] 100% | residual activity [13] 100% | inhibition [14] 17.1% | residual activity [15] 100% | residual activity [16] 64% | inhibition [17] 13.8% | residual activity [18] 100% | residual activity [19] 100% | residual activity [20] 100% | residual activity [21] 62% | residual activity [22] 100% | residual activity [23] 99% | inhibition [24] 47.2% | inhibition [25] 44.5% | residual activity [26] 100% | residual activity [27] 89% | residual activity [28] 80% | inhibition [29] 34.4% | inhibition [30] -4.92% | inhibition [31] 28.5% | residual activity [32] 96% | residual activity [33] 78% | residual activity [34] 100% | residual activity [35] 92% | residual activity [36] 100% | residual activity [37] 100% | residual activity [38] 100% | residual activity [39] 100% | residual activity [40] 100% | residual activity [41] 87% | residual activity [42] 93% | residual activity [43] 80% | residual activity [44] 98% | residual activity [45] 100% | residual activity [46] 100%

CC(=O)Nc1c(C(C)=O)c(=O)n(C)c2nc(-c3ccc(Cl)cc3Cl)c(-c3ccc(Cl)cc3)cc12 [NAPHTHYRIDINONE]
inactive: residual activity [1] 100% | residual activity [2] 100% | residual activity [3] 100% | residual activity [4] 100% | residual activity [5] 100% | residual activity [6] 100% | residual activity [7] 100% | residual activity [8] 100% | residual activity [9] 100% | residual activity [10] 100% | residual activity [11] 100% | residual activity [12] 100% | residual activity [13] 92% | inhibition [14] 22.7% | residual activity [15] 100% | residual activity [16] 100% | inhibition [17] 6.71% | residual activity [18] 100% | residual activity [19] 100% | residual activity [20] 100% | residual activity [21] 95% | residual activity [22] 100% | residual activity [23] 95% | inhibition [24] 17.1% | inhibition [25] 5.24% | residual activity [26] 100% | residual activity [27] 100% | residual activity [28] 94% | inhibition [29] 8.16% | inhibition [30] -4.54% | inhibition [31] -6.63% | residual activity [32] 100% | residual activity [33] 100% | residual activity [34] 100% | residual activity [35] 89% | residual activity [36] 100% | residual activity [37] 100% | residual activity [38] 100% | residual activity [39] 100% | residual activity [40] 79% | residual activity [41] 100% | residual activity [42] 100% | residual activity [43] 75% | residual activity [44] 100% | residual activity [45] 100% | residual activity [46] 100%
